Test results published in patent US8465783B2, “Production of potassium magnesium citrate and its applications” (Gadot Biochemical Industries Ltd., priority 2008, dated 2013).

Experiments:
Type in all cases: physicochemical
[1] = Magnesium retention in soy milk on standing (Mg content in upper layer); conditions: for Mg content: 1 liter, after addition during agitation (initial); for Mg content in upper layer: after retention of two days without agitation
Protocol: 3 g of material obtained in Example 1 were added to 1 liter of Soy milk during agitation.
3 g of material obtained in Example 2 were added to 1 liter of Soy milk during agitation.
Potassium magnesium citrate was prepared according to U.S. Pat. No. 4,985,593. 5.6 g Of the prepared material were added to 1 liter of soy milk and the samples stored refrigerated.
2.2 g of Tri magnesium citrate nona hydrate were added to 1 liter of soy milk during the agitation.
2.2 g of Tri magnesium citrate nona hydrate and 0.2 g of Kappa Carragenan were added to 1 liter of soy milk during the agitation.
2.2 g of Tri magnesium citrate nona hydrate and 2.2 g of tri potassium citrate were added to 1 liter of soy milk during the agitation.

[2] = Magnesium retention in cow milk on standing (Mg content in upper layer)
Protocol: 3 g of material obtained in Example 1 were added to 1 liter of cow milk during agitation.

[3] = Long-term magnesium retention in UHT-treated soy milk, stored refrigerated (Mg content in upper level)
Protocol: 120 g of material obtained in Example 1 were added to 40 liters of soy milk, after agitation the mixture passed the well known (in the art) UHT treatment and samples were collected and stored refrigerated.

Molecule: O.O.O.O.O.O.O.O.O.O=C([O-])CC(O)(CC(=O)[O-])C(=O)[O-].O=C([O-])CC(O)(CC(=O)[O-])C(=O)[O-].[Mg+2].[Mg+2].[Mg+2] [Tri magnesium citrate nona hydrate]
- Mg content [1]: 475 mg/L
- Mg content in upper layer [1]: 307 mg/L
- Magnesium sediment during two days ([1]; two days without agitation): 35 percents

Molecule: O=C([O-])CC(O)(CC(=O)[O-])C(=O)[O-].O=C([O-])CC(O)(CC(=O)[O-])C(=O)[O-].[K+].[K+].[K+].[K+].[Mg+2] [Potassium magnesium citrate]
- initial concentration of Mg ([1]; 5.6 g per 1 liter): 373 mg/L
- Mg content in the upper level ([1]; stored refrigerated, after 48 hours of retention): 372 mg/L

Molecule: Magnesium Potassium Citrate [Example 1]
- Mg content ([2]; 1 liter, after addition during agitation (initial)): 297 mg/L
- Mg content in upper layer ([2]; after retention of two days without agitation): 289 mg/L
- Mg content [1]: 445 mg/L
- Mg content in upper layer [1]: 444 mg/L
- Mg content in the upper level ([3]; after 1 week): 471 mg/L
- Mg content in the upper level ([3]; after 2 weeks): 470 mg/L
- Mg content in the upper level ([3]; after 3 weeks): 471 mg/L
- Mg content in the upper level ([3]; after 4 weeks): 470 mg/L
- Mg content in the upper level ([3]; after 5 weeks): 462 mg/L
- Mg content in the upper level ([3]; after 6 weeks): 468 mg/L
- Mg content in the upper level ([3]; after 7 weeks): 470 mg/L
- Mg content in the upper level ([3]; after 8 weeks): 468 mg/L
- Mg content in the upper level ([3]; after 9 weeks): 467 mg/L
- Mg content in the upper level ([3]; after 10 weeks): 465 mg/L
- Mg content in the upper level ([3]; after 11 weeks): 471 mg/L
- Mg content in the upper level ([3]; after 12 weeks): 465 mg/L
- Mg content in the upper level ([3]; after 13 weeks): 466 mg/L
- Mg content in the upper level ([3]; initial): 468 mg/L

Molecule: Magnesium Potassium Citrate [Example 2]
- Mg content [1]: 547 mg/L
- Mg content in upper layer [1]: 545 mg/L
